Patent US20220010283A1, “METHOD FOR PRODUCING PLURIPOTENT STEM CELL HAVING RELEASED DIFFERENTIATION RESISTANCE TO MESENDODERM” (Kyoto University, priority 2018, published 2022)

What was measured:
[1] = tested on: human iPS cell line AK5 (hPSC1); assay: Differentiation into hematopoietic progenitor cells by the PSC-Sac method (CD34+CD43+ cell count); assay type: cell-based; details: PSCs maintained on LM511, CHIR99021 6 nM added from 4, 3, 2 or 1 day before start of differentiation induction; vs DMSO (FIG. 2)
Description: PSCs were cultured according to the previous report on various laminin E8 fragments under feeder-free conditions (Nakagawa et al., Scientific Reports, 4: 3954, 2014). Among the recombinant laminin E8 fragments used, LM511 E8 was iMatrix-511/iMatrix-511 silk (Nippi, Ibaraki, Japan), and other laminin E8 (LM421/121) fragments were provided by Dr. Kiyotoshi Sekiguchi (Institute for Protein Research, Osaka University). Each laminin fragment was added to 0.5 μg/cm^2 relative to the dish bottom area. In the laminin dilution experiment, coating was performed in the same manner as described above under the conditions of [x½], [x¼], [x⅛], [x 1/16], wherein [x1] is Laminin 511E8 0.5 μg/cm^2 condition. […]
As a method for performing blood cell differentiation from PSCs, the PSC-Sac method, which is a co-culture method with mouse interstitial cell C3H10TR, was used (Takayama and Eto Methods Mol Biol. 2012; 788:205-17, Takaayama et al. J Exp Med. 2010 207(13): 2817-2830). […] After confirmation of the absence of intercellular adhesion, the cells were detached from the dish with Cell scraper, and the number of the cells was counted with Trypan Blue and a hemocytometer. […]
The number of the cells was counted with Trypan Blue and a hemocytometer. […] For the measurement of hPSCs, TRA-1-60 positive cells were measured. […]

human iPS cell line AK5 = assay: Intracellular staining and flow cytometry of pluripotency markers SOX2 and OCT3/4; assay type: cell-based; details: PSCs maintained in LM511 with CHIR99021 added; immediately before initiation of differentiation (FIG. 7)
Description: To detect pluripotency markers SOX2 and OCT3/4, intracellular staining was performed by flow cytometry. Briefly, dead cell staining was performed using Zombie (trade s mark) Aqua Fixable Viability Kit (BioLegend, San Diego, Calif., USA). After washing, the cells were fixed by allowing to stand for 15 min at room temperature with PerFix-nckit Reagent1. Successively, the cells were subjected to a permeation treatment by fixing with ice-cooled 100% methanol for 5 min, and incubating for 10 min at room temperature with 0.5% saponin. The cells were washed and suspended in PBS (containing 3% FBS), V450 Mouse anti-Sox2 and Alexa Fluor (registered trade mark) 488 conjugated Mouse anti-OCT3/4 (BD biosciences, Bedford, Mass., USA) was added, and the mixture was incubated on ice for 30 min. Excessive antibody was washed away and analysis was performed with FACSVerse (trade mark) (BD Biosciences).

**Q.** What does the source list for `Cc1c[nH]c(-c2cnc(NCCNc3ccc(C#N)cn3)nc2-c2ccc(Cl)cc2Cl)n1` [CHIR99021, 6-[2-[4-(2,4-Dichlorophenyl)-5-(4-methyl-1H-imidazol-2-yl)pyrimidin-2-ylamino]ethylamino]pyridine-3-carbonitrile]?
**A.** number of hematopoietic progenitor cells [1]: the number of hematopoietic progenitor cells could be increased; number of cells maintaining positive pluripotency for both OCT3/4 and SOX2 (human iPS cell line AK5): decreased
